In US20020197269A1, “Pharmaceutical composition for immunomodulation and preparation of vaccines” (CISTEM BIOTECHNOLOGIES GMBH, priority 2000, published 2002):
In the oligonucleotide strings, read from the 5' end, every base follows the letter of its sugar. An asterisk marks phosphorothioate; unmarked linkages are phosphodiester. Other units and linkages are bracketed, terminal groups are in braces. A string of capitals states the bases alone. d = 2'-deoxy (DNA)

Tested on: MC1R-peptide (WGPFFLHL) specific IFN-γ-producing cells
Experiment: IFN-γ-ELISPOT after footpad injection with MC1R-peptide (Example 3)
Type: in vivo, Mice C57B1/6
Conditions: co-injected with MC1R-peptide 300 μg/mouse into hind footpads; 4 days after injection; CpG-ODN 5 nmol/mouse

## CpG 1668: thiophosphate substituted ODNs containing a CpG motif: TCCATGACGTTCCTGATGCT (DNA dT*dC*dC*dA*dT*dG*dA*dC*dG*dT*dT*dC*dC*dT*dG*dA*dT*dG*dC*dT)
  peptide-specific IFN-γ-producing cells / peptide-specific response (IFN-γ-ELISPOT): low numbers
